From patent publication US5736529A, “Use of NAD-related compounds in the treatment of neural trauma to inhibit neurodegeneration” (priority 1996, dated 1998)
Where two headings read alike, the source gives them in different places.

Experiments:
[1] = system: DNA in brain regions of C57BL/6 mice; conditions: for DNA fragmentation, low dose: 21.9 mg/kg
Procedure: 24 month old C57BL/6 mice were divided into 3 groups of 3 mice each. One group was the control. A second group of mice was treated ICV with 109.7 mg/kg t-BuOOH and then sacrificed 20 minutes later. A third group of mice were treated ICV with 21.9 mg/kg t-BuOOH and then sacrificed 48 hours later. […] The brains were removed from the treated mice and were sectioned into the following six regions: cortex, striatum, hippocampus, thalamus, midbrain and cerebellum. DNA damage has been expressed as a ratio of the damaged DNA to the total DNA per gram of tissue.
DNA fragmentation was assessed in […] samples of tissue from a brain region. A volume of 0.2 ml of ice cold lysing buffer (10 mM Tris-HCl, pH 7.5, 1 mM EDTA, and 0.2% Triton X-100) was added to each section, which was then centrifuged at 12,000 g for 25 minutes to separate the intact from the fragmented DNA. The supernatant (containing the fragmented DNA) was transferred to a separate tube. 0.2 ml of the lysing buffer was added to the pellet with sonication for 10 seconds. The amount of DNA in the supernatant and pellet fractions was determined by a fluorimetric method, using the dye Hoechst 33258. DNA damage is presented as the ratio of DNA in the supernatant to the total DNA in the pellet and supernatant per gram of tissue^17.
8 month old mice were divided into 4 groups (n=5 each). Group 1 was the control. Mice in group 2 were treated with 109.7 mg/kg t-BuOOH and then sacrificed 20 minutes later. […] The same procedures were performed as with the 24 month old mice.

catalase = conditions: cited from earlier work
NADPH = experiment: Pyridine dinucleotide quantitation, NADPH in brain regions; assay type: in vivo, mouse (male C57BL/6); conditions: 110 mg/kg ICV, 8 month old mice
From the text: NADPH and NADH are stable in base. Fortunately, the cyanide reaction proceeds optimally in base.

DNA = experiment: EPR detection of radicals on mixing DNA and tBuOOH in the presence of DMPO
From the text: Therefore, DNA fragmentation is produced following HO. and other radicals induced DNA damage. Necrotic degeneration probably occurs within the first few hours after tBuOOH administration.

[2] = HPLC determination of tBuOOH in mice brains (pharmacokinetic profile); assay type: in vivo, mouse (male C57BL/6)
Procedure: Male C57BL/6 mice, 8 months old, were treated ICV with 110 mg/kg of tBuOOH. At various times, brains were removed, dissected and frozen on dry ice. Later the brains were homogenized in acetonitrile and centrifuged for 5 minutes at 12,000 g.

apoptotic cells in brain = conditions: 21.9 mg/kg ICV; 48 hours; most abundant in thalamus and pons
Procedure: The purpose of the apoptosis staining was to identify individual cells that may have undergone apoptosis. Residues of digoxigenin nucleotide were added to the DNA by an enzyme terminal deoxynucleotidyl transferase (TdT) which catalyzes the addition of deoxyribonucleotide triphosphate to the 3'-OH end of single and double stranded DNA. Thus the targets for labeling are the numerous new 3'-OH DNA ends generated by DNA fragmentation, easily observable in morphologically identifiable nuclei and apoptotic bodies. The sections were then incubated with an antibody to digoxigenin residues. The antibody was coupled to peroxidase allowing visualization with 3,3'-diaminobenzidine. Other sections were stained with cresyl violet.
A dose of 21.9 mg/kg of tBuOOH was administered ICV to C57BL/6 mice. The mice were anesthetized 48 hours after the tBuOOH administration and perfused through the left cardiac ventricle with 0.175M sodium phosphate and 0.155M sodium chloride (pH 7.5, PBS), then with 4% formaldehyde and 0.2% glutaraldehyde in PBS for six minutes with each solution at room temperature. The brains were then removed from the cranium after 2 hours of fixation and sliced coronally into 50μ sections with a vibrating microtome.
In order to detect individual cells undergoing apoptosis, the In Situ Apoptosis Detection Kit, (Oncor, Gaithersburg, Md.) was used. […]

DNA in brain of mice = assay type: in vivo, mouse (8 month old C47BL/6); conditions: 21.9 mg/kg t-BuOOH ICV; 48 hours; 8 month old mice
Procedure: A gel electrophoresis was performed to investigate whether the DNA fragmentation that is observed at the end of 48 hours is due to apoptosis or not (FIG. 7). 8 month old C47BL/6 mice were treated with ICV with 21.9 mg/kg t-BuOOH 48 hours prior to removal of the brains. Brains were added to lysing buffer and centrifuged. The supernatants were collected as in the DNA fragmentation assay. The samples were extracted with an equal volume of phenol/chloroform/isoamyl alcohol (25:24:1). The DNA in the aqueous phase was precipitated by adding an equal volume of 100% ethanol and maintained at -20° C. overnight. DNA was collected by centrifugation at 12,000 g for 25 minutes, air dried and resuspended in TBE buffer (90 mM Tris, 90 mM boric acid and 2 mM EDTA, pH 8.0). Horizontal electrophoresis was performed for 2 hours at 100 volts in a 0.75% agarose gel with TBE buffer. The gel was stained with ethidium bromide and photographed by UV transillumination.

[3] = 8 month old mice, 109.7 mg/kg t-BuOOH, 20 min
[4] = 8 month old mice, 109.7 mg/kg t-BuOOH, 20 min, * p<0.05 vs control
[5] = 24 month old mice, 21.9 mg/kg t-BuOOH ICV, 48 hours, * p<0.05 vs control
[6] = 24 month old mice, 109.7 mg/kg t-BuOOH ICV, 20 min, * p<0.05 vs control

CC(C)(C)OO [tBuOOH, t-butylhydroperoxide]
DNA fragmentation, low dose ([1]; 8 month old mice): significantly higher DNA fragmentation values were seen only in the cerebellum | DNA fragmentation, low dose ([1]; 24 month old mice): significant increases in DNA fragmentation were observed in almost all brain regions (except the striatum) | DNA fragmentation in the cortex or hippocampus ([1]; 109.7 mg/kg, 8 month old mice): no significant increase in DNA fragmentation | DNA fragmentation in many brain regions ([1]; 109.7 mg/kg, 24 and 8 month old mice): Significant DNA fragmentation | DNA fragmentation, cortex [1, 3]: 0.83 ± 0.14 per gram of tissue | DNA fragmentation, hippo [1, 3]: 0.768 ± 0.16 per gram of tissue | DNA fragmentation, cerebellum [1, 4]: 1.16 ± 0.15 per gram of tissue | DNA fragmentation, midbrain [1, 4]: 2.37 ± 0.43 per gram of tissue | DNA fragmentation, striatum [1, 4]: 2.33 ± 0.46 per gram of tissue | DNA fragmentation, thala [1, 4]: 2.65 ± 0.88 per gram of tissue | DNA fragmentation in the cerebellums (FIG. 5) ([1]; 8 month old mice, p<0.05): Statistically significantly different from control values and tBuOOH with nicotinamide | DNA fragmentation, striatum ([1]; 24 month old mice, 21.9 mg/kg t-BuOOH ICV, 48 hours): 1.94 ± 0.31 per gram of tissue | DNA fragmentation, cerebellum [1, 5]: 1.71 ± 0.45 per gram of tissue | DNA fragmentation, cortex [1, 5]: 1.55 ± 0.19 per gram of tissue | DNA fragmentation, hippo [1, 5]: 1.43 ± 0.23 per gram of tissue | DNA fragmentation, midbrain [1, 5]: 2.04 ± 0.53 per gram of tissue | DNA fragmentation, thala [1, 5]: 2.13 ± 0.31 per gram of tissue | DNA fragmentation, cerebellum [1, 6]: 1.84 ± 0.45 per gram of tissue | DNA fragmentation, cortex [1, 6]: 1.73 ± 0.23 per gram of tissue | DNA fragmentation, hippo [1, 6]: 1.44 ± 0.20 per gram of tissue | DNA fragmentation, midbrain [1, 6]: 2.77 ± 0.65 per gram of tissue | DNA fragmentation, striatum [1, 6]: 2.46 ± 0.33 per gram of tissue | DNA fragmentation, thala [1, 6]: 2.52 ± 0.43 per gram of tissue | substrate for catalase (catalase): not a substrate for catalase | time for NADPH to return to control values (NADPH): ≤ 5 min | NADPH oxidation (NADPH; every brain region): oxidized rapidly | radicals produced by mixing DNA and tBuOOH (DNA): produces HO. and other radicals | toxin concentration relative to the initial concentration within 5 minutes ([2]; 110 mg/kg ICV, 8 month old mice): less than 50% | tBuOOH concentration curve in 2 month old mice ([2]; compared with 8 month old mice): virtually identical curve | concentration at 10 min ([2]; mouse, brain, icv or intrathecal, 110 mg/kg ICV, 8 month old mice): ~1000 µM | half-life ([2]; mouse, icv or intrathecal, 110 mg/kg ICV, depending on the brain region): 4 to 20 min | clearance of tBuOOH from the brain ([2]; striatum of 8 month old mice, 110 mg/kg ICV): very rapid clearance of tBuOOH from the brain in the initial period, followed by a slower clearance | apoptotic cells in the brain (apoptotic cells in brain): Apoptotic cells were found in many brain regions, but were most abundant in the thalamus and pons | DNA fragments on gel electrophoresis (DNA in brain of mice): Oligosomal sized DNA fragments were observed along with a smear of fragmentation
